Laboratory results taken from patent publication US12428455B2, “Dominant negative CEBPB and CEBPD proteins and methods of use for decreasing viability of neoplastic cells” (The Trustees of Columbia University in the City of New York, priority 2018, dated 2025).

Tests used:
[1] = tested on: paclitaxel-resistant T98G cells; assay: Cell number, paclitaxel-resistant T98G cells; assay type: cell-based; details: 6 days; 0 μM to 50 μM peptide or 0 nM to 50 nM paclitaxel
Description: Replicate cultures of T98G wild type cells and paclitaxel-resistant T98G cells were treated with 0 nM to 50 nM paclitaxel or 0 μM to 50 μM CP-dn-CEBPB or CP-dn-CEBPD peptides, maintained for 6 days, and then assessed for cell number. Paclitaxel resistant T98G cells were inhibited by both CP-dn-CEBPB (FIG. 28A) and CP-dn-CEBPD (FIG. 28B), but, as expected were not inhibited by paclitaxel (FIG. 28C). This establishes that CP-dn-CEBPB and CP-dn-CEBPD may be effective against chemotherapy-resistant cells.

[2] = tested on: MDA-MB 231, HCT116, and A375 cells; assay: Peptide treatment after doxorubicin pre-treatment, cell number; assay type: cell-based; details: 100 nM, 24 hours
Description: Replicate cultures of MDA-MB 231, HCT116, and A375 cells were pretreated with 100 nM doxorubicin for 24 hours, and then treated with 1 μM, 3 μM, 10 μM, or 20 μM CP-dn-CEBPB and CP-dn-CEBPD peptides, maintained for 6 days, and then assessed for cell number. The bar graphs of FIGS. 31A (MDA-MB 231, CP-dn-CEBPB), 31C (MDA-MB 231, CP-dn-CEBPBD, 31E (HCT116, CP-dn-CEBPBD), 31G (HCT116, CP-dn-CEBPD), 31I (A375, CP-dn-CEBPBB), and 31K (A375, CP-dn-CEBPBD) show relative cell numbers for each condition as compared to untreated controls. The line graphs of FIGS. 31B (MDA-MB 231, CP-dn-CEBPB), 31D (MDA-MB 231, CP-dn-CEBPBD), 31F (HCT116, CP-dn-CEBPB), 31H (HCT116, CP-dn-CEBPD), 31J (A375, CP-dn-CEBPB), and 31L (A375, CP-dn-CEBPBD) show the response as normalized in each case so that 100 represents the relative number of surviving cells that received the indicated level of doxorubicin, but no peptide treatment.

SMILES	inhibition of paclitaxel-resistant T98G cells (cell number) [1]	effect of doxorubicin pre-treatment on growth of the cancer cells [2]
CC(=O)O[C@H]1C(=O)[C@@]2(C)[C@H]([C@H](OC(=O)c3ccccc3)[C@]3(O)C[C@H](OC(=O)[C@H](O)[C@@H](NC(=O)c4ccccc4)c4ccccc4)C(C)=C1C3(C)C)[C@]1(OC(C)=O)CO[C@@H]1C[C@@H]2O [paclitaxel, reference compound]	not inhibited	–
COc1cccc2c1C(=O)c1c(O)c3c(c(O)c1C2=O)C[C@@](O)(C(=O)CO)C[C@@H]3O[C@H]1C[C@H](N)[C@H](O)[C@H](C)O1 [doxorubicin, reference compound]	–	inhibited grown of the cancer cells
